Results reported in US9844226B2 (AJINOMOTO CO., INC., priority 2009, dated 2017).
“Also recorded” adds a separate entry of the source.

Columns and labels:
[1] = Stability (statement only); type: physicochemical; conditions: compared with γ-Glu-Cys
[2] = system: panelists; experiment: Sensory evaluation of salty taste in low salt chicken stock, use in combination with an organic acid; type: in vivo, human; conditions: γ-Glu-Abu 0.0040 g/dL in low salt chicken stock (salt 0.48 g/dL); control = 3, 1.25x salt = 4, 1.5x salt = 5; n=6
Experimental: The sensory evaluation tests were carried out as follows. […] A test compound in an appropriate amount was dissolved in the solution, and the salty taste strength was measured. No pH adjustment is necessary, such as the lowering of the pH, because there is no difference in pH between the solution after dissolving each test compound and the control without any added compound. […] To clarify the scale, the sensory evaluation scores were set as follows: the salty taste of the control: 3 points; the salty taste of a soup with increased salt concentration by 1.25 times as compared to that of control: 4 points; and the salty taste of a soup with increased salt concentration by 1.5 times as compared to that of the control: 5 points. The sensory evaluation was carried out using a panel of n (the number of panelists)=6. For the scoring a linear scale method was used. In this method, the score was marked as a position on a straight line showing positions for scores ranging from 1 3 5. The panelists used in this test were persons who had been engaged in the development of seasonings for foods for at least one year or longer in total, and who were capable of determining that the difference in potency between γ-[…] and γ-[…] each added to an umami and salty taste solution was around 10 times, while confirming the ability of these persons at regular intervals.

[3] = system: panelists; experiment: Strength of kokumi-imparting activity by Point of Subjective Equality (PSE), limit-determining technique; type: in vivo, human; conditions: from PSE
Experimental: The intensity of the kokumi-imparting activity of γ-Glu-Abu was determined by Point of Subjective Equality (PSE) according to the limit-determining technique (“Statistical Sensory Examination techniques”, written by SATO Shin, published by Japan Federation of Science and Technology). The sensory evaluation was carried out as follows: Distilled water containing sodium glutamate (0.05 g/dL), inosine monophosphate (0.05 g/dL) and sodium chloride (0.5 g/dL) was used as the solution for the sensory evaluation. […] To determine the concentration of γ-Glu-Val at which the strength of taste is the same as that of a solution obtained by causing the solution for the sensory evaluation to contain 0.005 g/dL of γ-[…] solutions were prepared with a concentration that varied on a 50% logarithmic scale by using a solution obtained by causing the solution for the sensory evaluation, to contain 0.01 g/dL of γ-Glu-Val as a standard. The concentrations of γ-Glu-Val was set to 7 values ranging from 0.0030 to 0.0337 g/dL. After the test substance was dissolved, samples more acidic than the control with no added test substance were adjusted, before further use, with NaOH to have a pH in a range of ±0.2 as compared to the pH of the control with no added test substance. The solutions were presented to eighteen panelists in ascending order of the γ-Glu-Val concentration. The evaluation was carried out until each panelist perceived that the strength was higher than that of the 0.005 g/dL γ-Glu-Abu solution. After a certain interval, the solutions were next presented to the eighteen panelists in descending order of the γ-Glu-Val concentration. The evaluation was carried out until each panelist perceived that the strength was lower than that of the 0.005 g/dL γ-Glu-Abu solution. In this sensory evaluation, the panelists were experienced in the development of food products. When the lower and upper threshold values were the same, there was no γ-Glu-Val concentration at which the difference between the perception that the strength was lower, and the perception that the strength was higher, was uncertain. […] Each confidence threshold (average) is an average of the lower thresholds and the upper thresholds. The point of subjective equality (PSE) of γ-Glu-Val to 50 ppm (0.0050 g/dL) of γ-Glu-Abu is expressed as follows: (the sum of the confidence threshold of the lower thresholds and that of the upper threshold value)/2.

[4] = system: panelists; experiment: Quantitative sensory evaluation test of salty taste enhancement; type: in vivo, human
Experimental: After the test compound was dissolved, samples more acidic than a control containing no added test compound were adjusted, before further use, with NaOH to have a pH in a range of ±0.2 from the pH of the control to which no test compound was added.
The sensory evaluation scores were as follows, the control to which no test compound was added, i.e. a 0.5 g/dL sodium chloride solution: 0 points; a 0.75 g/dL sodium chloride solution: 5 points. The sensory evaluation was conducted on a scale ranging from −5 to 0 to 5, with n=5. The “initial taste” refers to the taste perceived by each panelist from the start of eating the sample to 2 seconds thereafter, while the term “middle/after taste” refers to that perceived by each panelist from 2 seconds on and after eating the same, i.e. perceived during the period including both the middle taste and the after taste. For the scoring, a linear scale method was used. In this method, the score was marked as a position on a straight line showing positions for scores ranging from −5˜0˜5. The panelists were persons who were engaged in the development of seasonings for foods for one year or longer in total, and who were capable of determining that the difference in the potency between γ-Glu-Cys-Gly and γ-Glu-Val-Gly each added to a umami taste and salty taste solution was around 10 times, while confirming the ability of these persons at regular intervals.

[5] = system: panelists; experiment: Quantitative sensory evaluation test of kokumi-imparting activity; type: in vivo, human
Experimental: This quantitative sensory evaluation test was carried out as follows: The strength of the kokumi-imparting activity was measured for the cases where the test compound was mixed at concentrations of 0.001 to 0.5 g/dL with distilled water containing sodium glutamate (0.05 g/dL), inosine monophosphate (0.05 g/dL), and sodium chloride (0.5 g/dL). After the test compound was dissolved, samples more acidic than a control with no added test compound were adjusted, before further use, with NaOH to have a pH in a range of ±0.2 from the pH of the control with no added test compound. The sensory evaluation scores were as follows: control: 0 points; strong: 3 points; very strong: 5 points. The sensory evaluation was carried out using n (the number of panelists)=4. Moreover, to clarify the scale, the initial taste and the middle/after taste of γ-[…] at 0.001 g/dL were both set as 3.0 points. The term “middle/after taste” refers to the taste perceived during the period which includes the middle taste and the after taste. For the scoring, a linear scale method was employed. In this method, the score was marked as a position on a straight line showing positions for scores ranging from -5 0 5.

[6] = 0.004 g/dL in 0.5 g/dL NaCl, 0.5 g/dL NaCl = 0, 0.75 g/dL NaCl = 5, n=5
[7] = 0.005 g/dL in water with MSG 0.05, IMP 0.05, NaCl 0.5 g/dL, scale -5~0~5, n=4

CC[C@H](NC(=O)CC[C@H](N)C(=O)O)C(=O)O
Stability (in words) [1]: excellent in stability
Str. of Salty Taste (score) [2]: 3.56 score
Strength of γ-Glu-Abu relative to γ-Glu-Val [3]: approximately 2.4 times
Sensory Evaluation Profile (salty taste) ([4]; 0.004 g/dL in 0.5 g/dL NaCl): The salty taste was enhanced
Strength of Salty Taste Impartment, Initial Taste [4, 6]: 1.6 points
Strength of Salty Taste Impartment, Middle/After Taste [4, 6]: 1.5 points
Salty taste enhancement ability (in words) ([4]; comparison of γ-Glu-Val-Gly and γ-Glu-Abu): extremely well balanced salty taste enhancement
Strength of Kokumi Impartment, Initial Taste [5, 7]: 3.8 points
Strength of Kokumi Impartment, Middle/After Taste [5, 7]: 3.2 points
Kokumi-imparting potency (in words) ([5]; in vivo): extremely high potency; also recorded: excellent kokumi-imparting activity
